The results in this text go back to US8431602B2, “Beta-amino acid derivatives for treatment of diabetes” (Merck Patent Gesellschaft mit beschrankter Haftung, priority 2008, dated 2013).

This experiment deals with T1, glucokinase (GK), human enzyme (Homo sapiens, UniProt P35557).
T1 sequence (P35557 1-465): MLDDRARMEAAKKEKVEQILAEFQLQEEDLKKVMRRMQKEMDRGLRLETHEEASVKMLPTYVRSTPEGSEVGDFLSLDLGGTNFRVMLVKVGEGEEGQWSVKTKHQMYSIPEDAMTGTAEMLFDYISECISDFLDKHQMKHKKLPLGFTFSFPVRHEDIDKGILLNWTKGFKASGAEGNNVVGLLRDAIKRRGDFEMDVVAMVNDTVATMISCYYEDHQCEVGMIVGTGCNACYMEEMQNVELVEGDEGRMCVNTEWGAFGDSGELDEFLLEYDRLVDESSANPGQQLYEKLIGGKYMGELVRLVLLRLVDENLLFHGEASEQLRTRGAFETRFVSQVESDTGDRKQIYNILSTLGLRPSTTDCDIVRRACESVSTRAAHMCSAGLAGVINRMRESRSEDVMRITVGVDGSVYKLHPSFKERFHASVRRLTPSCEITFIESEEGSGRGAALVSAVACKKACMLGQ
Nature of the experiment: Glucokinase Activation Assay (coupled enzyme assay with PK/LDH, NADH decline at 340 nm). It is filed as biochemical. The settings on record: 2 mM glucose, half maximal effective concentration of activation. The procedure: Glucokinase Activation Screening Assay
GK activity (human or rat enzyme) is measured by a coupled enzyme assay using pyruvate kinase (PK) and lactate dehydrogenase (LDH) as coupling enzymes. GK activity is calculated from the decline in NADH monitored photometrically with a microtiter plate (MTP) reader at 340 nm.
For screening purposes, the GK assay is routinely run in a 384-MTP format, in a total volume of 33 μl/well. 10 μl of the ATP-regeneration solution (in HEPES-buffer*, pH 7.0, 6.73 U/ml pyruvate kinase, 6.8 U/ml lactate dehydrogenase) and 10 μl of the glucokinase-/glucose solution (15 μg/ml, 6.6 mM glucose in HEPES-buffer*, pH 7.0; the concentration of the glucose stock-solution was 660 mM in Millipore H2O) were mixed together with 3 μl of a 10% DMSO solution (in HEPES-buffer*, pH 7.0) containing […] the amounts of the compounds to achieve final compound concentrations in the range between 1 nM to 30 μM (sometimes 300 μM) in the assay solution (s. below). The solutions were mixed for 5 sec, and after a centrifugation at 243×g for 5 min, the solutions were preincubated for 25 min at room temperature. The reaction was started by the addition of 10 μl of the NADH-/ATP-solution (4.29 mM NADH, 4.95 mM ATP, in HEPES-buffer*). The MTP was shaken for 5 sec., and then, the absorbance at 340 nm was monitored continuously in a MTP-reader (TECAN Spectro fluor plus) for the next 27 min (with a MTP-cycling time of 199 sec.). The final concentrations of the various components were as follows: 49.5 mM Hepes, pH 7.0, 1.49 mM PEP, 1.3 mM NADH, 49.5 mM KCl, 4.96 mM MgCl2, 1.5 mM Mg-ATP, 1.98 mM DTT, 2.04 U/ml pyruvate kinase, 2.06 U/ml lactate-dehydrogenase, 0.91% DMSO, 0.15 μg/well glucokinase, and test compounds in the range between 1 nM and 300 μM, The change in the optical density (ΔOD340 nm) in the presence of the compound was expressed relative to the ΔOD340 nm, ctrl of the control incubation (in the presence of 2 mM glucose and 0.91% DMSO), taking into account the optical density of the blank sample (incubation in the absence of 2 mM glucose). For the determination of the half maximal effective concentration (EC50), the %-Ctrl-values were plotted in a semi-logarithmic graph against the cone. of the compound of interest. The data points were fitted to a sigmoid curve function (f(x)=((%-Ctrlmax−%-Ctrlmin)/(1−(EC50/x**^n(Hill)))+%-Ctrlmin)) by a non-linear regression analysis. • Hepes-buffer (50 mM Hepes, pH 7.0, 5 mM MgCl2, 50 mM KCl, 1.5 mM PEP, 0.1% BSA). DTT was added to the Hepes-buffer from a 200× stock solution (in Millipore H2O) freshly each day. The final concentration of DTT in the Hepes-buffer is 2 mM. Culture of Pancreatic INS-1 Cells
For orientation: EC50 means the concentration giving half of the maximal effect. Higher therefore signals a need for much substance. Compound `COc1cc(C(CC(=O)Nc2ccc(C)cn2)N2Cc3ccccc3C2=O)cc(OC)c1OC` (stereo not drawn) [B7, N-(5-Methyl-pyridine-2-yl)-3-(1-oxo-1,3-dihydro-isoindole-2-yl)-3-(3,4,5-trimethoxy-phenyl)-propionamide] yielded an EC50 of 1 to 10 µM.

For `COc1cc(C(CC(=O)Nc2ccc(Cl)cn2)N2Cc3ccccc3C2=O)cc(OC)c1OC` (stereo not drawn) [B2, N-(5-Chloro-pyridine-2-yl)-3-(1-oxo-1,3-dihydro-isoindole-2-yl)-3-(3,4,5-trimethoxy-phenyl)-propionamide], the EC50 was in the range of 1 to 10 µM.

Compound `CCOc1ccc(C(CC(=O)Nc2ccc(Cl)cn2)N2Cc3ccccc3C2=O)cc1OC` (stereo not drawn) [C23, N-(5-Chloro-pyridine-2-yl)-3-(4-ethoxy-3-methoxy-phenyl)-3-(1-oxo-1,3-dihydro-isoindole-2-yl)-propionamide] showed an EC50 greater than 10 µM.

In turn, `CCOc1ccc(C(CC(=O)Nc2ccc(Cl)cn2)N2Cc3ccccc3C2=O)cc1OC` (single isomer, unassigned; (+)) [C4, (+)-N-(5-Chloro-pyridine-2-yl)-3-(4-ethoxy-3-methoxy-phenyl)-3-(1-oxo-1,3-dihydro-isoindole-2-yl)-propionamide] returned an EC50 greater than 10 µM.

Take `COc1ccc(C(CC(=O)Nc2ccc(Cl)cn2)N2Cc3ccccc3C2=O)cc1OC` (stereo not drawn) [B6, N-(5-Chloro-pyridine-2-yl)-3-(3,4-dimethoxy-phenyl)-3-(1-oxo-1,3-dihydro-isoindole-2-yl)-propionamide]: the EC50 was greater than 10 µM.

Take `COc1cccc(C(CC(=O)Nc2ccc(Cl)cn2)N2Cc3ccccc3C2=O)c1OC` (stereo not drawn) [C3, N-(5-Chloro-pyridine-5-yl)-3-(2,3-dimethoxy-phenyl)-3-(1-oxo-1,3-dihydro-isoindole-2-yl)-propionamide]: the EC50 was greater than 10 µM.

The compound `COc1ccc(C(CC(=O)Nc2ccc(Br)cn2)N2Cc3ccccc3C2=O)cc1OC` (stereo not drawn) [B5, N-(5-Bromo-pyridine-2-yl)-3-(3,4-dimethoxy-phenyl)-3-(1-oxo-1,3-dihydro-isoindole-2-yl)-propionamide] returned an EC50 greater than 10 µM.

For the compound `COc1cc(C(CC(=O)Nc2ccc(Cl)cn2)N2Cc3ccccc3C2=O)cc(OC)c1OC` (single isomer, unassigned; (+)) [C1, (+)-N-(5-Chloro-pyridine-2-yl)-3-(1-oxo-1,3-dihydro-isoindole-2-yl)-3-(3,4,5-trimethoxy-phenyl)-propionamide], the 50% effective concentration (EC50) was 1 to 10 µM.

Compound `CCOc1ccc(C(CC(=O)Nc2ccc(Cl)cn2)N2Cc3ccccc3C2=O)cc1OC` (single isomer, unassigned; (-)) [C5, (−)-N-(5-Chloro-pyridine-2-yl)-3-(4-ethoxy-3-methoxy-phenyl)-3-(1-oxo-1,3-dihydro-isoindole-2-yl)-propionamide] had an EC50 greater than 10 µM.
